In assay [1] the target is Tyrosine-protein kinase BTK (Homo sapiens) (UniProt Q06187). Briefly: Inhibition of BTK phosphorylation in human JeKo-1 cells at 0.01 to 10 uM incubated for 2 hrs by Western blot analysis. Format: cell-based. The following applies: dose 0.01-10 µM.
Assay [2] shares this target. Nature of the assay: Inhibition of BTK (unknown origin) at 1 uM relative to control.
Assay [3] addresses Tyrosine-protein kinase Blk (Homo sapiens) (UniProt P51451). Briefly: Inhibition of BLK (unknown origin) at 1 uM relative to control.
Assay [4] addresses T1, Tyrosine-protein kinase TXK (Homo sapiens) (UniProt P42681).
T1 sequence (whole entry): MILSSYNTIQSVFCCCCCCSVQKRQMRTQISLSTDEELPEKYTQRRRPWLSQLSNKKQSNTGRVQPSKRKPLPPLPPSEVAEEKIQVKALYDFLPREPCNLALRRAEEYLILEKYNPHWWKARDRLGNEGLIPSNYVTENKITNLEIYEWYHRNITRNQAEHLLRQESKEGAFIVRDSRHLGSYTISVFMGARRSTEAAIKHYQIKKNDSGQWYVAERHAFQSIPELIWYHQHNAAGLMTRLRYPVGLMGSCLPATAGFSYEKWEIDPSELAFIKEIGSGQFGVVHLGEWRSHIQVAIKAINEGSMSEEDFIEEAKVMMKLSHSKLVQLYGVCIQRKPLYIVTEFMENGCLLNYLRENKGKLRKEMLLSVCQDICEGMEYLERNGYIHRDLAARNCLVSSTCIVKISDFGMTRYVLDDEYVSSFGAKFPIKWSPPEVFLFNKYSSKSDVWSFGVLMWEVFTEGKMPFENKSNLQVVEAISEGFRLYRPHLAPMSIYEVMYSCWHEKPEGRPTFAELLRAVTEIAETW
Briefly: Inhibition of TXK (unknown origin) at 1 uM relative to control.

The target of assay [5] is Receptor tyrosine-protein kinase erbB-4 (Homo sapiens) (UniProt Q15303). Nature of the assay: Inhibition of ERBB4 (unknown origin) at 1 uM relative to control.
Receptor tyrosine-protein kinase erbB-4 (Homo sapiens), sequence (Q15303 whole entry): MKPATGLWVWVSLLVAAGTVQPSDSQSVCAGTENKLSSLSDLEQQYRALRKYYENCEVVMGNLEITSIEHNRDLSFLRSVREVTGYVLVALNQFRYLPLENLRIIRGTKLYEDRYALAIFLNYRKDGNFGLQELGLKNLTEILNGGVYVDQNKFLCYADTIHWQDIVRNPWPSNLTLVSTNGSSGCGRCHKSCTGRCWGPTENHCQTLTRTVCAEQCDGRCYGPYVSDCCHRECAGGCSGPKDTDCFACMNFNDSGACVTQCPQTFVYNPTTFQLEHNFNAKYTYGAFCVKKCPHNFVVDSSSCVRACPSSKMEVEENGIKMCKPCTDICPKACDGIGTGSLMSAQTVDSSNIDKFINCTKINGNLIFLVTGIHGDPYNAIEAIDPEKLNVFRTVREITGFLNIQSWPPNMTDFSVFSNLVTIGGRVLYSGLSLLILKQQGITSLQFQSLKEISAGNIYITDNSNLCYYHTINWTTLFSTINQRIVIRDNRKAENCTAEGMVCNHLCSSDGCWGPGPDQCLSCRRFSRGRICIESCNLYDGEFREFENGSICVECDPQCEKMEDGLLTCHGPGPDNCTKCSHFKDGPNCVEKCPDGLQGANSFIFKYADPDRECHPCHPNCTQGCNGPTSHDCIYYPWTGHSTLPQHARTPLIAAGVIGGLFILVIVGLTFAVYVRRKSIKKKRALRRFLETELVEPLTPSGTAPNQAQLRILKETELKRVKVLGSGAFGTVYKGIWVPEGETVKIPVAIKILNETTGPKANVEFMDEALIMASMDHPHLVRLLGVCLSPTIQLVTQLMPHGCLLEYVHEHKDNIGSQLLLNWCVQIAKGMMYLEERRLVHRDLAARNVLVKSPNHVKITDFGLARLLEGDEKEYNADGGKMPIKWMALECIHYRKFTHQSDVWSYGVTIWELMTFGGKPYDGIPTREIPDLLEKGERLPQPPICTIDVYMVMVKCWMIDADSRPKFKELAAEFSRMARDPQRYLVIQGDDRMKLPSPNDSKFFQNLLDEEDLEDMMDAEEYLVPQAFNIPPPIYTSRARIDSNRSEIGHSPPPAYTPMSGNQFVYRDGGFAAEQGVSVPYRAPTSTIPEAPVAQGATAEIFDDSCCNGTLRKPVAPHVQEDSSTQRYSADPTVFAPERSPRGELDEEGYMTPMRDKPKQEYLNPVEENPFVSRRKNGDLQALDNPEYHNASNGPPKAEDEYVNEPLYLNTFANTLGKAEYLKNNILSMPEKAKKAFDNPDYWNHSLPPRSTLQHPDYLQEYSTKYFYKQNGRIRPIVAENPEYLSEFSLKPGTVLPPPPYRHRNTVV
The target in assay [6] is Tyrosine-protein kinase Lck (Homo sapiens) (UniProt P06239). Briefly: Inhibition of LCK (unknown origin) at 1 uM relative to control.
Tyrosine-protein kinase Lck (Homo sapiens), sequence (P06239 2-509 limits assumed): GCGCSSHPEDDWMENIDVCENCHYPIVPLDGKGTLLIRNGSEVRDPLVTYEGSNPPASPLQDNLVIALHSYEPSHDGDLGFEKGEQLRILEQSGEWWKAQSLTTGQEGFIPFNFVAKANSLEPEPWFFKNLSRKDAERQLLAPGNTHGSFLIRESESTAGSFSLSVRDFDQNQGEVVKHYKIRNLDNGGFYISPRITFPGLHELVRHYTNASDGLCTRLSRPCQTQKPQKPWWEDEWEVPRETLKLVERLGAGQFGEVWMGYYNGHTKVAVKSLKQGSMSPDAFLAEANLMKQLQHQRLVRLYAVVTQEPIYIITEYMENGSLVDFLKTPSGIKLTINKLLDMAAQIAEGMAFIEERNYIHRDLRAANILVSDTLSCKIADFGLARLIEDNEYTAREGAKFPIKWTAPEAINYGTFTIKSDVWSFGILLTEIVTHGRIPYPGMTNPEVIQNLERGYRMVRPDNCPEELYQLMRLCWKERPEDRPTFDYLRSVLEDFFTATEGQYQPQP
The target of assay [7] is Protein-tyrosine kinase 6 (Homo sapiens) (UniProt Q13882). Briefly: Inhibition of BRK (unknown origin) at 1 uM relative to control.
Protein-tyrosine kinase 6 (Homo sapiens), sequence (Q13882 whole entry, looked up): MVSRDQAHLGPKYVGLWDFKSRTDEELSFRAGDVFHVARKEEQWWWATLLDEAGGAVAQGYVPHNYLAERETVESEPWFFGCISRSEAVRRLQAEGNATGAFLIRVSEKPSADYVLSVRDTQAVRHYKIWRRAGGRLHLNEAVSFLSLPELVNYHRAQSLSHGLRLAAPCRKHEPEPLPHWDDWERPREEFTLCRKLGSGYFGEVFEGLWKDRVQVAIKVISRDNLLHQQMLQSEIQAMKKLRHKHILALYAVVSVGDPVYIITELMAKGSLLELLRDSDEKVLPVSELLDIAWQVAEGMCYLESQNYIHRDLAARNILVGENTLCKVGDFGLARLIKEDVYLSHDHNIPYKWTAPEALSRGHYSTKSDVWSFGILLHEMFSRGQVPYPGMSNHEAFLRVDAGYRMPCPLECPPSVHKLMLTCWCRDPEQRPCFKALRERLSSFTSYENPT
Assay [8] concerns the target Tyrosine-protein kinase Fgr (Homo sapiens) (UniProt P09769). Nature of the assay: Inhibition of FGR (unknown origin) at 1 uM relative to control.
Assay [9] addresses Tyrosine-protein kinase Tec (Homo sapiens) (UniProt P42680). Nature of the assay: Inhibition of TEC (unknown origin) at 1 uM relative to control.

Active and inactive are the calls of the source. The calls are words filed in the database; no cut-off is given here.

Tyrosine-protein kinase BTK (Homo sapiens), sequence (Q06187 whole entry): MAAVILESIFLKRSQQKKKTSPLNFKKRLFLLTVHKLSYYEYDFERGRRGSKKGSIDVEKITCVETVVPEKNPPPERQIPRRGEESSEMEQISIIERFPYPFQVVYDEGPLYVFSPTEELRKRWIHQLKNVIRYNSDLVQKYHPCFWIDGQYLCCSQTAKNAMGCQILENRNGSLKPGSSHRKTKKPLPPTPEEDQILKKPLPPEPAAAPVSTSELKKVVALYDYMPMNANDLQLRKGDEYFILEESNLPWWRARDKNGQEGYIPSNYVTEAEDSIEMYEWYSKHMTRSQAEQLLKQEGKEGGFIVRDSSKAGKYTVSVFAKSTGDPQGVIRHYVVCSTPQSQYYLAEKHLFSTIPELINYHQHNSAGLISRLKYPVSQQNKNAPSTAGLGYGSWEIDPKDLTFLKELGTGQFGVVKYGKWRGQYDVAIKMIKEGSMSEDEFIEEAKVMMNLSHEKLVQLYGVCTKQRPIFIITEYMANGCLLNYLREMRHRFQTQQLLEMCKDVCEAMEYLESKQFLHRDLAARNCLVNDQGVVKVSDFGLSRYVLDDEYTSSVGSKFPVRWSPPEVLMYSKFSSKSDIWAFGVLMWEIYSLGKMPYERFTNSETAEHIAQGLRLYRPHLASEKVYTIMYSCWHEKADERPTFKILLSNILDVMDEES
Tyrosine-protein kinase Fgr (Homo sapiens), sequence (P09769 2-529 limits assumed): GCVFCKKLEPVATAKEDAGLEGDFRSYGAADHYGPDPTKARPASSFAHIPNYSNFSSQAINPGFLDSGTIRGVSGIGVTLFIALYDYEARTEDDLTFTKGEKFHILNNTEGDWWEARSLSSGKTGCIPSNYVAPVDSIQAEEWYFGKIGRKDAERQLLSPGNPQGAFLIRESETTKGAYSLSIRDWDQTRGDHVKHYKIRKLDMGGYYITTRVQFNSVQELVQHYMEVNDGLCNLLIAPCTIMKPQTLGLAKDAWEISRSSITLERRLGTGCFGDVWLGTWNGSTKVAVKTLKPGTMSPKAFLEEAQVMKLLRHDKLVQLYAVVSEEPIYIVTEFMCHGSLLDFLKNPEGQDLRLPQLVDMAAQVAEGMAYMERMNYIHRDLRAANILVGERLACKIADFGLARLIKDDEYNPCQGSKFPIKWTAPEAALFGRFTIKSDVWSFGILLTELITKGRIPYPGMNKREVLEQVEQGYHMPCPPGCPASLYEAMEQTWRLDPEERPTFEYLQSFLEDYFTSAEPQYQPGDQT
Tyrosine-protein kinase Blk (Homo sapiens), sequence (P51451 2-505 limits assumed): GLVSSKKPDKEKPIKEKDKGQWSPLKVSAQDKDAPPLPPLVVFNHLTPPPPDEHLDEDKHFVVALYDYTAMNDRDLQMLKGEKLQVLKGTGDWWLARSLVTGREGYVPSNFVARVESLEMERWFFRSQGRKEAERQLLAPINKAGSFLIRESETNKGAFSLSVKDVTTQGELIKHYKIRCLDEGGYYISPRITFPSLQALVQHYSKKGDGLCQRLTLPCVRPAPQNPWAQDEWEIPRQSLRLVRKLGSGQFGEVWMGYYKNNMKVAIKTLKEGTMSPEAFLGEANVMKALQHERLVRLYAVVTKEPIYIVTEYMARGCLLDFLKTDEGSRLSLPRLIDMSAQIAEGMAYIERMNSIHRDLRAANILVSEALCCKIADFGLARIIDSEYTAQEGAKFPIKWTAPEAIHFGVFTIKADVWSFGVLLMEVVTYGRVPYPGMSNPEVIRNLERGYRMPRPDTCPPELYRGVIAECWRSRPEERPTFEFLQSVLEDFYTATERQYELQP
Tyrosine-protein kinase Tec (Homo sapiens), sequence (P42680 whole entry, looked up): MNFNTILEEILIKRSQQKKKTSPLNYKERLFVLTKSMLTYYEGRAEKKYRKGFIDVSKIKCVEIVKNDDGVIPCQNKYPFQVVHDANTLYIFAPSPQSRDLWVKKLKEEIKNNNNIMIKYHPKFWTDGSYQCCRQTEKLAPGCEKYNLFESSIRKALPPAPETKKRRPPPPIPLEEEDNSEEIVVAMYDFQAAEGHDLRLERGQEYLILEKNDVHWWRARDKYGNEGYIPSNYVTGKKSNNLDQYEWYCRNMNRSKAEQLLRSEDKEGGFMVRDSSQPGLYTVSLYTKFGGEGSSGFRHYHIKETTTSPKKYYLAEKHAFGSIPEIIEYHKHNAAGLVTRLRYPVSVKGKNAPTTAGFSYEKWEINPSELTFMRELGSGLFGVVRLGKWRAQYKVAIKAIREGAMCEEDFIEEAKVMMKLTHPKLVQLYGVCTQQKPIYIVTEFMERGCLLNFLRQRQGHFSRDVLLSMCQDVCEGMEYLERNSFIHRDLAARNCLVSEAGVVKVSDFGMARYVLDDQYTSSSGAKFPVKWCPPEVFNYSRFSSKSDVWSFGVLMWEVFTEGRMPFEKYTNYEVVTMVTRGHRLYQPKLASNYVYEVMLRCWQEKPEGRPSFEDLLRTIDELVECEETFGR

As a reminder, the inhibition is the change of the read-out against control, counted positive when it falls. On to `C=CC(=O)N1CCC[C@H](n2nc(-c3c(C)cc(Oc4ccccc4)cc3C)c3c(N)ncnc32)C1`, for which the inhibition entry in [1] was “Active”. The inhibition was 10% in [2]; 10% in assay [3]; 10% in assay [4]; 10% in [5]; 50% in assay [6]; 50% in [7]. Further, the values for the inhibition in [8] and in assay [9] were 50% and 10%, respectively.

In the case of `C=CC(=O)N1CCC[C@H](n2nc(-c3ccc(Oc4ccccc4)cc3C)c3c(N)ncnc32)C1`, the inhibition entry in assay [1] is “Active”.

Source of the values: ChEMBL document CHEMBL5257057.
